“Also recorded” adds a separate entry of the source.
Assays:
[1] = test system: monocyte progenitors (monocyte prog); experiment: MLTA, MonoP: concentration-response and QSP model fit; type: cell-based, human; conditions: Homo sapiens, Monocyte, 144 h
Outline: (§1)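 Six-day flow cytometry counts, bead-normalized and expressed relative to the mean of six vehicle wells, underlie each value. Cells were primary human bone marrow CD34+ cells cultured in SFEM II with cytokines promoting multi-lineage differentiation and self-renewal.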

[2] = test system: early erythroid cells (Eryth I); experiment: MLTA, ErythI: concentration-response and QSP model fit; type: cell-based, human; conditions: Homo sapiens, 144 h
Outline: as §1

[3] = test system: total viable cells (totalViableCells); experiment: MLTA, total live cells concentration-response; type: cell-based; conditions: Homo sapiens, 144 h, 6 days, normalized to vehicle control, read-out: total_live normalized cell count
Outline: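 Freeze-thawed primary human bone marrow CD34+ cells in SFEM II with cytokine cocktail, drug added day 0, 6 days at 37°C, 5% CO2. Live/dead counts by 17-parameter flow cytometry with DAPI exclusion, bead-normalized, volume-corrected to cells/mL. Normalized per donor to mean of six vehicle wells; 2–7 donors pooled.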

[4] = test system: multi-potent progenitors (MPPs); experiment: MLTA, MPPs: concentration-response and QSP model fit; type: cell-based, human; conditions: Homo sapiens, 144 h
Outline: (§2)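 Values derive from fitting a QSP Emax model (EmaxT 0–2, above 1 denoting added cell killing) to vehicle-normalized lineage counts. Counts were obtained by 17-parameter flow after 6-day culture of human bone marrow CD34+ cells with test article.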

[5] = test system: neutrophils (neutrophil-lin); experiment: MLTA, Neut: concentration-response and QSP model fit; type: cell-based, human; conditions: Homo sapiens, Neutrophil, 144 h
Outline: as §2

[6] = test system: late erythroid cells (Eryth II); experiment: MLTA, ErythII: concentration-response and QSP model fit; type: cell-based, human; conditions: Homo sapiens, 144 h
Outline: as §2

[7] = test system: granulocyte progenitor (Gran-lin prog); experiment: MLTA, GranP: concentration-response and QSP model fit; type: cell-based, human; conditions: Homo sapiens, 144 h
Outline: as §1

[8] = test system: human bone marrow-derived CD34+ cells differentiated into multiple hematopoietic lineages; experiment: MLTA, overall effects across hematopoietic lineages; type: cell-based
Outline: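 Thawed primary human bone marrow CD34+ cells grown in SFEM II with a multi-lineage cytokine cocktail, drug added day 0, 6 days at 37°C, 5% CO2. Subsets counted by 17-parameter flow cytometry with TruCount beads, normalized to six vehicle wells per donor (2–7 donors); Emax model fitted per cell type.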

## O=C1CCC(N2C(=O)c3ccccc3C2=O)C(=O)N1 (stereo not drawn) [thalidomide]
[1]; dose 0.2 nM, 6 days, normalized to vehicle control, read-out: MonoPs normalized cell count
  activity at 0.0002 µM: 90.1%
[1]; dose 1 nM, 6 days, normalized to vehicle control, read-out: MonoPs normalized cell count
  activity at 0.001 µM: 93.5%
[1]; dose 5 nM, 6 days, normalized to vehicle control, read-out: MonoPs normalized cell count
  activity at 0.005 µM: 98.4%
[1]; dose 25 nM, 6 days, normalized to vehicle control, read-out: MonoPs normalized cell count
  activity at 0.025 µM: 120%
[1]; dose 100 nM, 6 days, normalized to vehicle control, read-out: MonoPs normalized cell count
  activity at 0.1 µM: 92%
[1]; dose 500 nM, 6 days, normalized to vehicle control, read-out: MonoPs normalized cell count
  activity at 0.5 µM: 82.7%
[1]; dose 2500 nM, 6 days, normalized to vehicle control, read-out: MonoPs normalized cell count
  activity at 2.5 µM: 104%
[1]; parameter from QSP model fitting, read-out: Emax_drug_MonoP
  Emax: 0.00494%
[2]; dose 0.2 nM, 6 days, normalized to vehicle control, read-out: ErythI normalized cell count
  activity at 0.0002 µM: 101%
[2]; dose 1 nM, 6 days, normalized to vehicle control, read-out: ErythI normalized cell count
  activity at 0.001 µM: 120%
[2]; dose 5 nM, 6 days, normalized to vehicle control, read-out: ErythI normalized cell count
  activity at 0.005 µM: 124%
[2]; dose 25 nM, 6 days, normalized to vehicle control, read-out: ErythI normalized cell count
  activity at 0.025 µM: 122%
[2]; dose 100 nM, 6 days, normalized to vehicle control, read-out: ErythI normalized cell count
  activity at 0.1 µM: 137%
[2]; dose 500 nM, 6 days, normalized to vehicle control, read-out: ErythI normalized cell count
  activity at 0.5 µM: 114%
[2]; dose 2500 nM, 6 days, normalized to vehicle control, read-out: ErythI normalized cell count
  activity at 2.5 µM: 136%
[2]; parameter from QSP model fitting, read-out: Emax_drug_ErythroidI
  Emax: 0.00343%
[3]; dose 0.2 nM
  viability at 0.0002 µM: 90.8%
[3]; dose 1 nM
  viability at 0.001 µM: 99.8%
[3]; dose 5 nM
  viability at 0.005 µM: 108%
[3]; dose 25 nM
  viability at 0.025 µM: 116%
[3]; dose 100 nM
  viability at 0.1 µM: 93.1%
[3]; dose 500 nM
  viability at 0.5 µM: 91.7%
[3]; dose 2500 nM
  viability at 2.5 µM: 104%
[4]; dose 0.2 nM, 6 days, normalized to vehicle control, read-out: MPPs normalized cell count
  activity at 0.0002 µM: 91.8%
[4]; dose 1 nM, 6 days, normalized to vehicle control, read-out: MPPs normalized cell count
  activity at 0.001 µM: 75.9%
[4]; dose 5 nM, 6 days, normalized to vehicle control, read-out: MPPs normalized cell count
  activity at 0.005 µM: 79%
[4]; dose 25 nM, 6 days, normalized to vehicle control, read-out: MPPs normalized cell count
  activity at 0.025 µM: 87.5%
[4]; dose 100 nM, 6 days, normalized to vehicle control, read-out: MPPs normalized cell count
  activity at 0.1 µM: 76.7%
[4]; dose 500 nM, 6 days, normalized to vehicle control, read-out: MPPs normalized cell count
  activity at 0.5 µM: 78.1%
[4]; dose 2500 nM, 6 days, normalized to vehicle control, read-out: MPPs normalized cell count
  activity at 2.5 µM: 91.5%
[4]; parameter from QSP model fitting, read-out: Emax_drug_MPP
  Emax: 0.00111%
[5]; dose 0.2 nM, 6 days, normalized to vehicle control, read-out: Neut normalized cell count
  activity at 0.0002 µM: 99.5%
[5]; dose 1 nM, 6 days, normalized to vehicle control, read-out: Neut normalized cell count
  activity at 0.001 µM: 79.1%
[5]; dose 5 nM, 6 days, normalized to vehicle control, read-out: Neut normalized cell count
  activity at 0.005 µM: 88.2%
[5]; dose 25 nM, 6 days, normalized to vehicle control, read-out: Neut normalized cell count
  activity at 0.025 µM: 94.5%
[5]; dose 100 nM, 6 days, normalized to vehicle control, read-out: Neut normalized cell count
  activity at 0.1 µM: 62.4%
[5]; dose 500 nM, 6 days, normalized to vehicle control, read-out: Neut normalized cell count
  activity at 0.5 µM: 69%
[5]; dose 2500 nM, 6 days, normalized to vehicle control, read-out: Neut normalized cell count
  activity at 2.5 µM: 96.9%
[5]; parameter from QSP model fitting, read-out: Emax_drug_Neut
  Emax: 1.13%
[6]; dose 0.2 nM, 6 days, normalized to vehicle control, read-out: ErythII normalized cell count
  activity at 0.0002 µM: 94.3%
[6]; dose 1 nM, 6 days, normalized to vehicle control, read-out: ErythII normalized cell count
  activity at 0.001 µM: 99.8%
[6]; dose 5 nM, 6 days, normalized to vehicle control, read-out: ErythII normalized cell count
  activity at 0.005 µM: 105%
[6]; dose 25 nM, 6 days, normalized to vehicle control, read-out: ErythII normalized cell count
  activity at 0.025 µM: 111%
[6]; dose 100 nM, 6 days, normalized to vehicle control, read-out: ErythII normalized cell count
  activity at 0.1 µM: 77.8%
[6]; dose 500 nM, 6 days, normalized to vehicle control, read-out: ErythII normalized cell count
  activity at 0.5 µM: 87.5%
[6]; dose 2500 nM, 6 days, normalized to vehicle control, read-out: ErythII normalized cell count
  activity at 2.5 µM: 93.7%
[6]; parameter from QSP model fitting, read-out: Emax_drug_ErythroidII
  Emax: 0.00351%
[7]; dose 0.2 nM, 6 days, normalized to vehicle control, read-out: GranPs normalized cell count
  activity at 0.0002 µM: 80.9%
[7]; dose 1 nM, 6 days, normalized to vehicle control, read-out: GranPs normalized cell count
  activity at 0.001 µM: 97.2%
[7]; dose 5 nM, 6 days, normalized to vehicle control, read-out: GranPs normalized cell count
  activity at 0.005 µM: 114%
[7]; dose 25 nM, 6 days, normalized to vehicle control, read-out: GranPs normalized cell count
  activity at 0.025 µM: 130%
[7]; dose 100 nM, 6 days, normalized to vehicle control, read-out: GranPs normalized cell count
  activity at 0.1 µM: 99%
[7]; dose 500 nM, 6 days, normalized to vehicle control, read-out: GranPs normalized cell count
  activity at 0.5 µM: 94.5%
[7]; dose 2500 nM, 6 days, normalized to vehicle control, read-out: GranPs normalized cell count
  activity at 2.5 µM: 109%
[7]; parameter from QSP model fitting, read-out: Emax_drug_GranP
  Emax: 0.0121%
[8]; 0.2-2500 nM, 6 days, relative to vehicle control
  effect on hematopoietic cell numbers across cell types: least effect on hematopoietic cell types across doses; also recorded: did not drastically decrease cell types
[8]; QSP model fit, EmaxT > 1.0 = cell-killing
  EmaxT effects across cell types (overall statement): ≤ 0.1

— publication PMC7402526, “An in vitro quantitative systems pharmacology approach for deconvolving mechanisms of drug-induced, multilineage cytopenias” (PLoS Computational Biology, 2020)
